Ends that are not written are not given here.
Key:
[1] = test system: SNAP-GLP-1R; experiment: Palmitoylation assay, SNAP-GLP-1R; type: cell-based, human
Procedure: For the detection of palmitoylated GLP-1Rs, cells were stimulated with 100 nM of the indicated agonist for 10 min and, when appropriate, pretreated with 10 μM BETP for 5 min (and throughout the agonist stimulation period) or overnight with 200 μM of the palmitoylation inhibitor 2-BP. Isolation of palmitoylated proteins was performed with the CAPTUREome S-Palmitoylated Protein Kit (Badrilla), following the manufacturer’s instructions. […] Key steps include blocking of free thiol groups with a blocking reagent, cleavage of thioester linkages to release the palmitate group, and capture of newly liberated thiols with the CAPTUREome capture resin. Briefly, cells were lysed and free thiols blocked in the manufacturer’s blocking buffer at 40 °C for 4 h with constant vortexing. Proteins were then precipitated with cold acetone for 20 min at −20 °C. Following centrifugation at 16,000g for 5 min, the pellet was extensively washed with 70% cold acetone and resuspended in the manufacturer’s binding buffer. Approximately 10% of the soluble lysate was saved as the input fraction (IF). Prewashed CAPTUREome capture resin was added to the lysates. To this mixture, either the thioester cleavage or the acyl-preservation reagents were added. Resins were washed five times with the manufacturer’s binding buffer. […]

[2] = test system: wt or C438A SNAP-GLP-1R in HEK293 cells; experiment: Internalization of C438A versus wt SNAP-GLP-1R with BETP (confocal, DERET); type: cell-based, human; conditions: 100 nM exendin-phe1, 10 μM BETP
[3] = test system: GLP-1R; conditions: cited from earlier work
[4] = test system: GLP-1R; conditions: cited from earlier work; remark: listed apart in the source
Description: To further elucidate the mechanism by which BETP potentiates GLP-1R responses, we examined the relative contributions of GLP-1R palmitoylation, β-arrestins, and cholesterol-dependent membrane compartmentalization to its effect.

[5] = test system: cellular cholesterol in HEK293, CHO-K1, INS-1 832/3, MIN6B1 cells; experiment: Cholesterol depletion (filipin / Amplex Red); type: cell-based; parameters: unit not given here
Procedure: Cells were treated with or without MβCD as above. For cholesterol labeling, filipin staining was carried out with the Cell-Based Cholesterol Assay Kit (Abcam). For quantification of cholesterol levels, lipid was extracted using butanol as described. Briefly, the washed cell pellet was left in 250 μl butanol overnight at 4 °C, and the organic layer was aspirated, placed in a microplate, and allowed to evaporate to dryness. The lipid film was redissolved in 1% Triton X-100, and cholesterol concentration was determined using the Amplex Red Cholesterol Assay Kit (Thermo Fisher), followed by normalization to protein content of the cell pellet determined by BCA assay.

[6] = target: T1, endogenous GLP-1R in INS-1 832/3 cells (Rattus norvegicus, UniProt P32301); experiment: HTRF cAMP, wt INS-1 832/3 cells; type: cell-based; conditions: MβCD; wild-type INS-1 832/3 cells
T1 construct: endogenous in cells
T1 sequence (P32301 22-463): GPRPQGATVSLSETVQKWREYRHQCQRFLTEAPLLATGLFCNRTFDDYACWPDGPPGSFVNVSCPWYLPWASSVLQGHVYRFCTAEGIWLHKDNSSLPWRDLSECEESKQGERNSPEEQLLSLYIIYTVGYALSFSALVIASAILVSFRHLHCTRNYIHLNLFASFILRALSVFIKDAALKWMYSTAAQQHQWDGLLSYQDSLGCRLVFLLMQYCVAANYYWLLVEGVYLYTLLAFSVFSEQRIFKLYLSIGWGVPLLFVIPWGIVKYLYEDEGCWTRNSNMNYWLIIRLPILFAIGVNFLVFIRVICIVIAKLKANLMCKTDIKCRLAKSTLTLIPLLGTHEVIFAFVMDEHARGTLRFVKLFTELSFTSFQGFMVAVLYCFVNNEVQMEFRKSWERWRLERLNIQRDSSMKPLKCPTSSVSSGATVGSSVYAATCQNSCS
Procedure: Cells were treated in white microplates with agonist, with or without isobutylmethylxanthine (IBMX) as indicated to inhibit phosphodiesterases, for the indicated period of time before total cellular cAMP determination by HTRF (Cisbio cAMP Dynamic 2).

[7] = test system: SNAP-GLP-1R; experiment: SNAP-GLP-1R internalization by confocal microscopy; type: cell-based, human
[8] = test system: SNAP-GLP-1R in HEK293 cells; experiment: NR12S TR-FRET (liquid-ordered localization); type: cell-based, human; conditions: for concentration response with MβCD (sheet S2H): agonist not named
[9] = test system: SNAP-GIPR in INS-1 832/3 cells; experiment: SNAP-GIPR internalization by confocal microscopy; type: cell-based; conditions: MβCD 10 mM 1 h; 100 nM GIP 1 h
Procedure: For confocal microscopy, cells were labeled at 37 °C with 1 μM of the indicated SNAP-tag fluorescent probe (New England Biolabs) in full media, stimulated with agonists for the indicated times, fixed in 4% paraformaldehyde, mounted in Prolong Diamond antifade reagent with 4,6-diamidino-2-phenylindole (Life Technologies), imaged with a Zeiss LSM-780 inverted confocal laser-scanning microscope in a ×63/1.4 numerical aperture oil-immersion objective from the Facility for Imaging by Light Microscopy (FILM) at Imperial College London, and analyzed in Fiji. […] Images were acquired with an ORCA-Flash 4.0 camera (Hamamatsu) and Metamorph software (Molecular Devices), and colocalization was measured by Manders’ coefficient analyzed using Coloc 2 plugin in Fiji.

[10] = test system: SNAP-GLP-1R in HEK293 cells; experiment: Surface SNAP-GLP-1R labeling by Lumi4-Tb; type: cell-based, human; conditions: MβCD treatment
[11] = test system: SNAP-GIPR in CHO-K1 cells; conditions: 100 nM GIP, 10 min
[12] = test system: SNAP-GIPR in HEK293 cells; conditions: GIP 100 nM
Description: These concentrations were selected because they provided optimum signal intensity at both measurement wavelengths. […] TR-FRET was sequentially measured after agonist addition.

[13] = test system: human GLP-1R (SNAP-GLP-1R) in MIN6B1 cells; experiment: SNAP-GLP-1R partitioning into detergent-resistant (raft) membrane fractions; type: cell-based; conditions: 2 min stimulation, versus vehicle

CC[S+]([O-])c1nc(-c2cccc(OCc3ccccc3)c2)cc(C(F)(F)F)n1 (centres unmarked) [BETP, 4-(3-benzyloxyphenyl)-2-ethylsulfinyl-6-(trifluoromethyl)pyrimidine]
effect on exendin-4-induced palmitoylation (in words) ([1]; CHO SNAP-GLP-1R cells, BETP 10 μM, 100 nM exendin-4 10 min): significant reduction in exendin-4-induced palmitoylation | effect of BETP on internalization of C438A (in words) [2]: comparable to that of wild-type receptors | potentiation of weak agonist GLP-1(9–36)NH2 (in words) [3]: markedly augment responses | potentiation of weak agonist oxyntomodulin (in words) [3]: markedly augment responses | covalent binding site (in words) [4]: covalently bind two intracellular GLP-1R cysteine residues (347 and 438

CC(C)CCC[C@@H](C)[C@H]1CC[C@H]2[C@@H]3CC=C4C[C@@H](O)CC[C@]4(C)[C@H]3CC[C@]12C [Chol]
cellular cholesterol ([5]; CHO-K1, replicate 1): 666.594 | cellular cholesterol ([5]; CHO-K1, replicate 2): 793.376 | cellular cholesterol ([5]; CHO-K1, replicate 3): 793.376 | cellular cholesterol ([5]; HEK293, replicate 1): 549.236 | cellular cholesterol ([5]; HEK293, replicate 2): 621.505 | cellular cholesterol ([5]; HEK293, replicate 3): 643.5 | cellular cholesterol ([5]; INS-1 832/3, replicate 1): 653.543 | cellular cholesterol ([5]; INS-1 832/3, replicate 2): 706.063 | cellular cholesterol ([5]; INS-1 832/3, replicate 3): 690.314 | cellular cholesterol ([5]; MIN6B1, replicate 1): 989.644 | cellular cholesterol ([5]; MIN6B1, replicate 2): 1174.28 | cellular cholesterol ([5]; MIN6B1, replicate 3): 1186.59

methyl-β-cyclodextrin [MβCD]
effect on cAMP production (in words) [6]: reduced by MβCD | effect on BETP-induced internalization of exendin-phe1-stimulated SNAP-GLP-1R (in words) ([7]; MIN6B1, MβCD 10 mM 1 h preincubation): inhibited this process to the same extent as for exendin-4 | effect on exendin-4-induced internalization (in words) ([7]; MβCD 10 mM 1 h, 100 nM exendin-4, 15 min, beta and nonbeta cells): marked inhibition of exendin-4-induced SNAP-GLP-1R internalization | effect on SNAP-GLP-1R endocytosis (in words) ([7]; MβCD, wt and β-arrestin-less HEK293, 100 nM exendin-4, 15 min): substantially inhibited by MβCD irrespective of β-arrestin status | effect on NR12S-linked TR-FRET (in words) ([8]; MβCD, S2H): effective in reducing both basal and exendin-4-induced NR12S-linked increases in TR-FRET | concentration response with MβCD (sheet S2H) ([8]; log conc -6, replicate 1): 33.0955 | concentration response with MβCD (sheet S2H) ([8]; log conc -6, replicate 2): 36.4407 | concentration response with MβCD (sheet S2H) ([8]; log conc -6, replicate 3): 38.4994 | concentration response with MβCD (sheet S2H) ([8]; log conc -6.47712, replicate 1): 34.0966 | concentration response with MβCD (sheet S2H) ([8]; log conc -6.47712, replicate 2): 36.1901 | concentration response with MβCD (sheet S2H) ([8]; log conc -6.47712, replicate 3): 32.7645 | concentration response with MβCD (sheet S2H) ([8]; log conc -6.95424, replicate 2): 32.2917 | concentration response with MβCD (sheet S2H) ([8]; log conc -6.95424, replicate 3): 33.0671 | concentration response with MβCD (sheet S2H) ([8]; log conc -7.43136, replicate 1): 24.1893 | concentration response with MβCD (sheet S2H) ([8]; log conc -7.43136, replicate 2): 31.793 | concentration response with MβCD (sheet S2H) ([8]; log conc -7.90849, replicate 2): 35.2618 | concentration response with MβCD (sheet S2H) ([8]; log conc -7.90849, replicate 3): 26.4888 | concentration response with MβCD (sheet S2H) ([8]; log conc -8.38561, replicate 3): 33.8275 | concentration response with MβCD (sheet S2H) ([8]; log conc -8.86273, replicate 1): 30.8645 | concentration response with MβCD (sheet S2H) ([8]; log conc -8.86273, replicate 2): 27.0998 | concentration response with MβCD (sheet S2H) ([8]; log conc -8.86273, replicate 3): 36.96 | concentration response with MβCD (sheet S2H) ([8]; log conc -10, replicate 1): 23.1185 | concentration response with MβCD (sheet S2H) ([8]; log conc -10, replicate 2): 30.0361 | concentration response with MβCD (sheet S2H) ([8]; log conc -10, replicate 3): 37.2206 | effect on GIPR endocytosis (in words) [9]: virtually abolished after MβCD treatment | effect on surface SNAP-GLP-1R expression (in words) [10]: did not alter receptor surface SNAP-GLP-1R expression | cellular cholesterol ([5]; CHO-K1, replicate 1): 39.7439 | cellular cholesterol ([5]; CHO-K1, replicate 2): 158.5 | cellular cholesterol ([5]; CHO-K1, replicate 3): 99.7412 | cellular cholesterol ([5]; HEK293, replicate 1): 170.419 | cellular cholesterol ([5]; HEK293, replicate 2): 186.214 | cellular cholesterol ([5]; HEK293, replicate 3): 179.148 | cellular cholesterol ([5]; INS-1 832/3, replicate 1): 159.866 | cellular cholesterol ([5]; INS-1 832/3, replicate 2): 177.786 | cellular cholesterol ([5]; INS-1 832/3, replicate 3): 167.411 | cellular cholesterol ([5]; MIN6B1, replicate 1): 202.183 | cellular cholesterol ([5]; MIN6B1, replicate 2): 224.442 | cellular cholesterol ([5]; MIN6B1, replicate 3): 240.208

CCCCCCCCCCCCCCCC(=O)O [palmitate]
GLP-1R palmitoylation (in words) ([1]; MIN6B1 SNAP-GLP-1R cells, excess palmitate (200 μM palmitate/BSA overnight)): greatly enhanced

glucose-dependent insulinotropic polypeptide [GIP]
GIPR palmitoylation (in words) [11]: not further increased by GIP stimulation | SNAP-GIPR clustering (in words) [12]: no detectable increase upon GIP addition

GLP-1(7–36)NH2: endogenous GLP-1R agonist (HAEGTFTSDVSSYLEGQAAKEFIAWLVKGR-NH2; UniProt P01275 98-127, looked up)
SNAP-GLP-1R raft recruitment (in words) [13]: Increased enrichment of poly-glycosylated GLP-1Rs in membrane raft fractions
